Common to all, as to assay: Minimal inhibitory concentration, agar dilution method
Assay type in all cases: cell-based

Assay [1] has as its system Escherichia coli NIHJ. The text has this: (§1) When determined according to the agar dilution method, the penicillins (I) afford the minimal inhibitory concentrations against test microorganisms as shown in Table 2.
The subject of assay [2] is Klebsiella pneumoniae PCI602.
From the text: as §1

For assay [3], the system named is Pseudomonas aeruginosa 104.
From the text: as §1

Assay [4] concerns Staphylococcus aureus 209P.
From the text: as §1

Assay [5] relates to Proteus miravilis GN2425.
Assay [6] relates to Proteus vulgaris HV19.

Structures are written as SMILES. Converted amounts (≈) assume the structure as drawn. Counter-ions that a name gives are not always drawn.

On to `CC1(C)SC2C(NC(=O)C(NC(=O)c3cnc4ccc(N)nc4c3O)c3cccc(N)c3)C(=O)N2C1C(=O)O` (stereo not drawn) [Example 29], for which the MIC (as a rule, the least concentration at which growth counts as inhibited) in assay [1] worked out at 0.78 mg/L (≈ 1.41 µM); in assay [2], 6.25 mg/L (≈ 11.3 µM); in assay [3], 0.78 mg/L (≈ 1.41 µM); in assay [4], 1.56 mg/L (≈ 2.83 µM); in assay [5], 0.78 mg/L (≈ 1.41 µM); in assay [6], 0.025 mg/L (≈ 0.0453 µM).
With `CC1(C)SC2C(NC(=O)C(NC(=O)c3cnc4cccnc4c3O)c3ccc(O)c(O)c3)C(=O)N2C1C(=O)O` (stereo not drawn) [Example 61], the MIC in assay [1] was 0.78 mg/L (≈ 1.41 µM); in assay [2] it was 12.5 mg/L (≈ 22.6 µM); in assay [3], 1.56 mg/L (≈ 2.82 µM); in assay [4], 0.78 mg/L (≈ 1.41 µM); in assay [5] it was 1.56 mg/L (≈ 2.82 µM); in assay [6] it was 0.025 mg/L (≈ 0.0452 µM).
Regarding `COc1ccc(C(NC(=O)c2cnc3ccccc3c2S)C(=O)NC2C(=O)N3C2SC(C)(C)C3C(=O)O)cc1` (stereo not drawn) [Example 38], the MIC in assay [1] was 6.25 mg/L (≈ 11 µM); in assay [2], 12.5 mg/L (≈ 22.1 µM); in assay [3], 3.13 mg/L (≈ 5.52 µM); in assay [4], 0.78 mg/L (≈ 1.38 µM); in assay [5], 6.25 mg/L (≈ 11 µM); in assay [6], 0.39 mg/L (≈ 0.688 µM).
Regarding `COc1ccc2ncc(C(=O)NC(C(=O)N[C@@H]3C(=O)N4[C@@H]3SC(C)(C)[C@@H]4C(=O)O)c3cccc(N)c3)c(O)c2n1` (stereo partly drawn) [Example 23], the minimum inhibitory concentration (MIC) in assay [1] was 0.78 mg/L (≈ 1.38 µM); in assay [2], 6.25 mg/L (≈ 11 µM); in assay [3] it was 1.56 mg/L (≈ 2.75 µM); in assay [4] it was 1.56 mg/L (≈ 2.75 µM); in assay [5] it was 1.56 mg/L (≈ 2.75 µM); in assay [6] it was 0.05 mg/L (≈ 0.0882 µM).
With `CN(C)c1ccc2ncc(C(=O)NC(C(=O)N[C@@H]3C(=O)N4[C@@H]3SC(C)(C)[C@@H]4C(=O)O)c3cccc(N)c3)c(O)c2n1` (stereo partly drawn) [Example 22], the minimal inhibitory concentration (MIC) in assay [1] stood at 0.78 mg/L (≈ 1.35 µM); in assay [2], 3.13 mg/L (≈ 5.4 µM); in assay [3], 0.78 mg/L (≈ 1.35 µM); in assay [4], 1.56 mg/L (≈ 2.69 µM); in assay [5], 0.78 mg/L (≈ 1.35 µM); in assay [6], 0.025 mg/L (≈ 0.0431 µM).
As for `CC1(C)SC2C(NC(=O)C(NC(=O)c3cnc4c5c(ccc4c3O)CCC5)c3cccc(N)c3)C(=O)N2C1C(=O)O` (stereo not drawn) [Example 50], the MIC worked out at 3.13 mg/L (≈ 5.44 µM) in assay [1]; 12.5 mg/L (≈ 21.7 µM) in assay [2]; 3.13 mg/L (≈ 5.44 µM) in assay [3]; 0.78 mg/L (≈ 1.35 µM) in assay [4]; 12.5 mg/L (≈ 21.7 µM) in assay [5]; 0.39 mg/L (≈ 0.677 µM) in assay [6].
As for `COc1ccc2c(O)c(C(=O)NC(C(=O)N[C@@H]3C(=O)N4[C@@H]3SC(C)(C)[C@@H]4C(=O)O)c3cccc(N)c3)cnc2c1` (stereo partly drawn) [Example 20], the minimal inhibitory concentration (MIC) in assay [1] turned out to be 3.13 mg/L (≈ 5.53 µM); in assay [2], 6.25 mg/L (≈ 11.1 µM); in assay [3], 3.13 mg/L (≈ 5.53 µM); in assay [4], 0.78 mg/L (≈ 1.38 µM); in assay [5] it was 3.13 mg/L (≈ 5.53 µM); in assay [6], 0.1 mg/L (≈ 0.177 µM).
On to `CC1(C)SC2C(NC(=O)C(NC(=O)c3cnc4cccnc4c3O)c3cccc(F)c3)C(=O)N2C1C(=O)O` (stereo not drawn) [Example 47], for which the MIC amounted to 1.56 mg/L (≈ 2.89 µM) in assay [1]; 12.5 mg/L (≈ 23.2 µM) in assay [2]; 1.56 mg/L (≈ 2.89 µM) in assay [3]; 1.56 mg/L (≈ 2.89 µM) in assay [4]; 1.56 mg/L (≈ 2.89 µM) in assay [5]; 0.05 mg/L (≈ 0.0927 µM) in assay [6].
Regarding `CC1(C)SC2C(NC(=O)C(NC(=O)c3cnc4cc5c(cc4c3O)OCC5)c3cccc(N)c3)C(=O)N2C1C(=O)O` (stereo not drawn) [Example 49], the MIC in assay [1] turned out to be 3.13 mg/L (≈ 5.42 µM); in assay [2] it was 6.25 mg/L (≈ 10.8 µM); in assay [3], 3.13 mg/L (≈ 5.42 µM); in assay [4] it was 0.78 mg/L (≈ 1.35 µM); in assay [5] it was 3.13 mg/L (≈ 5.42 µM); in assay [6], 0.2 mg/L (≈ 0.346 µM).
On to `CSc1nc2ccc3ncc(C(=O)NC(C(=O)NC4C(=O)N5C4SC(C)(C)C5C(=O)O)c4cccc(N)c4)c(O)c3c2s1` (stereo not drawn) [Example 51], for which the MIC in assay [1] was determined as 3.13 mg/L (≈ 4.9 µM); in assay [2], 6.25 mg/L (≈ 9.78 µM); in assay [3], 3.13 mg/L (≈ 4.9 µM); in assay [4] it was 0.78 mg/L (≈ 1.22 µM); in assay [5], 3.13 mg/L (≈ 4.9 µM); in assay [6], 0.2 mg/L (≈ 0.313 µM).
With `CC1(C)SC2C(NC(=O)C(NC(=O)c3cnc4nc(N5CCCC5)ncc4c3O)c3cccc(N)c3)C(=O)N2C1C(=O)O` (stereo not drawn) [Example 53], the minimum inhibitory concentration (MIC) in assay [1] stood at 3.13 mg/L (≈ 5.16 µM); in assay [2] it was 6.25 mg/L (≈ 10.3 µM); in assay [3] it was 3.13 mg/L (≈ 5.16 µM); in assay [4], 1.56 mg/L (≈ 2.57 µM); in assay [5], 3.13 mg/L (≈ 5.16 µM); in assay [6], 0.025 mg/L (≈ 0.0412 µM).
In the case of `CC1(C)SC2C(NC(=O)C(NC(=O)c3cnc4cccnc4c3O)c3ccc(O)c([N+](=O)[O-])c3)C(=O)N2C1C(=O)O` (stereo not drawn) [Example 62], the MIC was determined as 1.56 mg/L (≈ 2.68 µM) in assay [1]; 12.5 mg/L (≈ 21.5 µM) in assay [2]; 1.56 mg/L (≈ 2.68 µM) in assay [3]; 1.56 mg/L (≈ 2.68 µM) in assay [4]; 3.13 mg/L (≈ 5.37 µM) in assay [5]; 0.05 mg/L (≈ 0.0858 µM) in assay [6].
With `COc1ccc(C(NC(=O)c2cnc3cn[nH]c3c2O)C(=O)NC2C(=O)N3C2SC(C)(C)C3C(=O)O)cc1` (stereo not drawn) [Example 34], the MIC in assay [1] is 3.13 mg/L (≈ 5.79 µM); in assay [2] it was 12.5 mg/L (≈ 23.1 µM); in assay [3], 3.13 mg/L (≈ 5.79 µM); in assay [4] it was 0.78 mg/L (≈ 1.44 µM); in assay [5] it was 6.25 mg/L (≈ 11.6 µM); in assay [6] it was 0.1 mg/L (≈ 0.185 µM).
Turning to `COc1ccc(C(NC(=O)c2cnc3ccncc3c2O)C(=O)NC2C(=O)N3C2SC(C)(C)C3C(=O)O)cc1` (stereo not drawn) [Example 41], the MIC in assay [1] amounted to 3.13 mg/L (≈ 5.67 µM); in assay [2], 12.5 mg/L (≈ 22.7 µM); in assay [3] it was 3.13 mg/L (≈ 5.67 µM); in assay [4], 1.56 mg/L (≈ 2.83 µM); in assay [5], 12.5 mg/L (≈ 22.7 µM); in assay [6] it was 0.39 mg/L (≈ 0.707 µM).
Consider `CC1(C)S[C@@H]2[C@H](NC(=O)C(NC(=O)c3cc4ccccc4nc3O)c3cccc(N)c3)C(=O)N2[C@H]1C(=O)O` (stereo partly drawn) [Example 31], for which the MIC worked out at 3.13 mg/L (≈ 5.84 µM) in assay [1]; 12.5 mg/L (≈ 23.3 µM) in assay [2]; 3.13 mg/L (≈ 5.84 µM) in assay [3]; 0.78 mg/L (≈ 1.46 µM) in assay [4]; 3.13 mg/L (≈ 5.84 µM) in assay [5]; 0.39 mg/L (≈ 0.728 µM) in assay [6].
Regarding `Cc1ncc2c(O)c(C(=O)NC(C(=O)NC3C(=O)N4C3SC(C)(C)C4C(=O)O)c3cccc(N)c3)cnc2n1` (stereo not drawn) [Example 58], the MIC came out at 1.56 mg/L (≈ 2.83 µM) in assay [1]; 12.5 mg/L (≈ 22.7 µM) in assay [2]; 3.13 mg/L (≈ 5.67 µM) in assay [3]; 1.56 mg/L (≈ 2.83 µM) in assay [4]; 3.13 mg/L (≈ 5.67 µM) in assay [5]; 0.05 mg/L (≈ 0.0906 µM) in assay [6].
Turning to `CC1(C)SC2C(NC(=O)C(NC(=O)c3cnc4cccnc4c3O)c3ccc(O)c(N)c3)C(=O)N2C1C(=O)O` (stereo not drawn) [Example 63], the MIC in assay [1] is 0.78 mg/L (≈ 1.41 µM); in assay [2] it was 6.25 mg/L (≈ 11.3 µM); in assay [3] it was 1.56 mg/L (≈ 2.82 µM); in assay [4] it was 0.78 mg/L (≈ 1.41 µM); in assay [5] it was 1.56 mg/L (≈ 2.82 µM); in assay [6] it was 0.025 mg/L (≈ 0.0452 µM).
For `COc1cnc2c(O)c(C(=O)NC(C(=O)NC3C(=O)N4C3SC(C)(C)C4C(=O)O)c3cccc(N)c3)cnc2n1` (stereo not drawn) [Example 39], the MIC was 0.78 mg/L (≈ 1.37 µM) in assay [1]; 6.25 mg/L (≈ 11 µM) in assay [2]; 0.78 mg/L (≈ 1.37 µM) in assay [3]; 0.78 mg/L (≈ 1.37 µM) in assay [4]; 0.78 mg/L (≈ 1.37 µM) in assay [5]; 0.025 mg/L (≈ 0.044 µM) in assay [6].
Regarding `CN(C)c1ccc([C@@H](NC(=O)c2cnc3cccnc3c2O)C(=O)N[C@@H]2C(=O)N3[C@@H]2SC(C)(C)[C@@H]3C(=O)O)cc1` [Example 5, D-α-(4-hydroxy-1,5-naphthyridine-3-carboxamido)-p-dimethylaminobenzylpenicillin sodium salt], the MIC in assay [1] was determined as 3.13 mg/L; in assay [2] it was 6.25 mg/L; in assay [3], 1.56 mg/L; in assay [4] it was 1.56 mg/L; in assay [5] it was 6.25 mg/L; in assay [6], 0.1 mg/L.
Consider `COc1nc(OC)c2c(O)c(C(=O)NC(C(=O)NC3C(=O)N4C3SC(C)(C)C4C(=O)O)c3ccc(N)cc3)cnc2n1` (stereo not drawn) [Example 32], for which the MIC in assay [1] came out at 3.13 mg/L (≈ 5.24 µM); in assay [2], 12.5 mg/L (≈ 20.9 µM); in assay [3], 3.13 mg/L (≈ 5.24 µM); in assay [4], 1.56 mg/L (≈ 2.61 µM); in assay [5] it was 3.13 mg/L (≈ 5.24 µM); in assay [6], 0.05 mg/L (≈ 0.0837 µM).

The record behind these values is patent US3992371A, “Penicillins substituted with heterocyclic and substituted phenyl groups” (Sumitomo Chemical Company, Limited, priority 1973, dated 1976).
